In paper PMC4053365 (PLoS ONE, 2014):
Counter-ions that a name gives are not always drawn.

Experiments:
MOP receptor = biological target: T1, MOP receptor (Rattus norvegicus, UniProt P33535); test: Radioligand binding assay, [3H]DAMGO, rat brain membranes; settings: for Selectivity ratio DOP/MOP / Selectivity ratio KOP/MOP: ratio of Ki values
T1 construct: Membranes were prepared from Sprague-Dawley rat or guinea pig brains; from tissue; host or cells: Sprague-Dawley rat brain membranes

DOP receptor = biological target: T2, DOP receptor (Rattus norvegicus, UniProt P33533); test: Radioligand binding assay, [3H][Ile5,6]deltorphin II, rat brain membranes
T2 construct: Membranes were prepared from Sprague-Dawley rat or guinea pig brains; from tissue; host or cells: Sprague-Dawley rat brain membranes

KOP receptor = biological target: T3, KOP receptor (Cavia porcellus, UniProt P41144); test: Radioligand binding assay, [3H]U69,593, guinea pig brain membranes
T3 construct: Membranes were prepared from Sprague-Dawley rat or guinea pig brains; from tissue; host or cells: guinea pig brain membranes

rodents = settings: fraction or fold of morphine potency; cited from earlier work
KOP = biological target: KOP; set-up: method as in earlier work; settings: read-out: Ki KOP (previously reported); cited from earlier work
MOP = biological target: MOP; set-up: method as in earlier work; settings: read-out: Ki MOP (previously reported); cited from earlier work
DOP = biological target: DOP; set-up: method as in earlier work; settings: read-out: Ki DOP (previously reported); cited from earlier work
mice [1] = test: Tail-flick test (acute thermal nociception); assay type: in vivo; settings: s.c.; for ED50: Mus musculus, sc, 0.5 h, 30 min after administration, read-out: ED50 (95% CL) Tail-flick test
mice [2] = test: Hot-plate test (acute thermal nociception); assay type: in vivo; settings: s.c.; for ED50: Mus musculus, sc, 0.5 h, 30 min after administration, read-out: ED50 (95% CL) Hot-plate test
mice [3] = test: Observation of locomotor activity and sedation during antinociception testing; assay type: in vivo; settings: s.c., any tested dose, about 3- to 4-fold the analgesic ED50 dose
human DOP receptor [4] = biological target: T4, human DOP receptor (Homo sapiens, UniProt P41143); assay type: cell-based; set-up: expressed in transfected cells; host or cells: CHO (CHOhDOP) stably expressing GαqG66Di5, whole cells; settings: CHO cells co-expressing human DOP and GαqG66Di5; inactive = inactive up to 10 µM; crc = concentration response curve
human KOP receptor [5] = biological target: T5, human KOP receptor (Homo sapiens, UniProt P41145); assay type: cell-based; set-up: expressed in transfected cells; host or cells: CHO (CHOhKOP) stably expressing Gαqi5, whole cells
human MOP receptor [6] = biological target: T6, human MOP receptor (Homo sapiens, UniProt P35372); test: cell-based; assay type: cell-based; set-up: expressed in transfected cells; host or cells: CHO (CHOhMOP) stably expressing Gαqi5, whole cells
human KOP receptor [7] = biological target: T5, human KOP receptor; test: biochemical; set-up: expressed in transfected cells; host or cells: CHO (CHOhKOP) cell membranes
human MOP receptor [8] = biological target: T6, human MOP receptor; test: biochemical; assay type: biochemical; set-up: expressed in transfected cells; host or cells: CHO (CHOhMOP) cell membranes
human DOP receptor [9] = biological target: T4, human DOP receptor; test: biochemical; set-up: expressed in transfected cells; host or cells: CHO (CHOhDOP) cell membranes

T6 sequence (P35372 whole entry): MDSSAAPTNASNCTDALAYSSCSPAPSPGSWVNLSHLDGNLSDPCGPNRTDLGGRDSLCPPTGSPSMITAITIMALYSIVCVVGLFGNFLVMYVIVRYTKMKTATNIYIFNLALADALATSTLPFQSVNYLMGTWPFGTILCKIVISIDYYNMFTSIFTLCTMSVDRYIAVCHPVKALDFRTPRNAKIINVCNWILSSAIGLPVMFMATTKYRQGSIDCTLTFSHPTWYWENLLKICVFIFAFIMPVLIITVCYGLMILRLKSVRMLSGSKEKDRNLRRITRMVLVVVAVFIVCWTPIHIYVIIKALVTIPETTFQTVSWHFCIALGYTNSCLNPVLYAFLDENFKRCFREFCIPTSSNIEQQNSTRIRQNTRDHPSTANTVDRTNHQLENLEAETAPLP
T1 sequence (P33535 whole entry): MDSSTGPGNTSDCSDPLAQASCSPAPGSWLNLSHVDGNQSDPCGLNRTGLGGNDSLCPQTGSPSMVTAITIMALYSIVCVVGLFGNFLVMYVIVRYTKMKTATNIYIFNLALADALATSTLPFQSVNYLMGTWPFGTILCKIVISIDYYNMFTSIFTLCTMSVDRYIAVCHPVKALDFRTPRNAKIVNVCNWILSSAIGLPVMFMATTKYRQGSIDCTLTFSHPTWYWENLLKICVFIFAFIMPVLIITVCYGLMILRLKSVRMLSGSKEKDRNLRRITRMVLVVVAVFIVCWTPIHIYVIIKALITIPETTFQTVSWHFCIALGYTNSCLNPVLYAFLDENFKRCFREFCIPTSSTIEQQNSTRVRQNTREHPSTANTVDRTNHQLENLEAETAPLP
T4 sequence (P41143 whole entry): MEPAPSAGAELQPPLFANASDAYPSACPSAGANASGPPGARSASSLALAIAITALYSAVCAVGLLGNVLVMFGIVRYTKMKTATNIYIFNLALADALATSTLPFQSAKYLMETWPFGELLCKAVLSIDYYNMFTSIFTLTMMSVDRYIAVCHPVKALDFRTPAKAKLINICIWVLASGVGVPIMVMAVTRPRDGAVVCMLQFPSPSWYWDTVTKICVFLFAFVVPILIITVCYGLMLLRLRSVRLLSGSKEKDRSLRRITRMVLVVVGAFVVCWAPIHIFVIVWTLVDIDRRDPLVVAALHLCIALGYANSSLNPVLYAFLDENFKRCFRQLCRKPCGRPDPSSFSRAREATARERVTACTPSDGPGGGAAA
T2 sequence (P33533 whole entry): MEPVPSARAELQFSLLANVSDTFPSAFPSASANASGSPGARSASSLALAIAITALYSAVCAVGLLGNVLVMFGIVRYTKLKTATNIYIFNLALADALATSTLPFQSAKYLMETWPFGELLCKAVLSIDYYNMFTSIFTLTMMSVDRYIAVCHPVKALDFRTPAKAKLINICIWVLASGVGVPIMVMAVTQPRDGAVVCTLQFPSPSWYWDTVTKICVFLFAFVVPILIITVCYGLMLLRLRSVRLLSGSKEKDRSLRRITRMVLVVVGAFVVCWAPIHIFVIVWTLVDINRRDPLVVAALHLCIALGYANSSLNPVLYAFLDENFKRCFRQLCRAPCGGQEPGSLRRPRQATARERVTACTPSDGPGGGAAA
T3 sequence (P41144 whole entry): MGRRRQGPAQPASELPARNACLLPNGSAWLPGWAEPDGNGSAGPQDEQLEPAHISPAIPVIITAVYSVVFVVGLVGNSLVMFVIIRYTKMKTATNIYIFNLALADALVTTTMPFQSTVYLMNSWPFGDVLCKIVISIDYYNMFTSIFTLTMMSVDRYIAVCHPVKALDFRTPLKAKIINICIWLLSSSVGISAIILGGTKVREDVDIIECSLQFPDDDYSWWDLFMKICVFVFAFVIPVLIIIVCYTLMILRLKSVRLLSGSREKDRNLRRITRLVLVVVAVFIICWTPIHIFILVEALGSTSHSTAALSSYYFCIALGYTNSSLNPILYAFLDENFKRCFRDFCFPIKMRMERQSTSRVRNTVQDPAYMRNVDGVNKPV
T5 sequence (P41145 whole entry): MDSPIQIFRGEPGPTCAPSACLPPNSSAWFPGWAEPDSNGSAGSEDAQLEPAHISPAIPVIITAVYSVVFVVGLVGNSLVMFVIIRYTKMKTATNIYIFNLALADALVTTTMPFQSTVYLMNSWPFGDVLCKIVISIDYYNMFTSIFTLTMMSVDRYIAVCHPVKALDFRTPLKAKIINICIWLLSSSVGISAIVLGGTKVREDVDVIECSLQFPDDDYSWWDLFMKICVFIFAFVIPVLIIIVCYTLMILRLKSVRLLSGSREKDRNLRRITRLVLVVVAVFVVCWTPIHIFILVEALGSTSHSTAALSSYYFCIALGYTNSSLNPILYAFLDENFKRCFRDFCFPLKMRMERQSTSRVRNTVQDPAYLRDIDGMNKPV

What does the source list for `Oc1ccc2c3c1O[C@H]1[C@@H](O)C=C[C@H]4[C@@H](C2)N(CCCc2ccccc2)CC[C@@]341` [Compound 2, N-phenylpropylnormorphine]?
Ki (MOP receptor): 79.5 ± 1.1 nM; Selectivity ratio DOP/MOP (MOP receptor): 11; Selectivity ratio KOP/MOP (MOP receptor): 7; Ki (DOP receptor): 869 ± 171 nM; Ki (KOP receptor): 565 ± 24 nM

Which “Analgesic potency relative to morphine” value (rodents) does the source give for `Oc1ccc2c3c1OC1C(O)C=CC4C(C2)N(Cc2ccccc2)CCC341` (centres unmarked) [N-benzylnormorphine] here?
The value was “less than one-tenth”.

Which Ki (KOP) does the source give for `O=C1CC[C@@]2(O)[C@H]3Cc4ccc(O)c5c4[C@@]2(CCN3Cc2ccccc2)[C@H]1O5` [Compound 5, N-Benzylnoroxymorphone] here?
Its Ki is […].

And the melting point?
Its melting point is 235 to 237 °C.

Which ED50 (mice [1]) does the source give for `O=C1CC[C@@]2(O)[C@H]3Cc4ccc(O)c5c4[C@@]2(CCN3CCc2ccccc2)[C@H]1O5` [Compound 6, N-phenethylnoroxymorphone] here?
The ED50 was 0.15 mg/kg.

What about the ED50 (mice [2]) of the same compound?
The ED50 was 0.18 mg/kg.

What about the “Antinociceptive potency higher than 6-hydroxy counterpart 4” value (mice [2]; hot-plate and tail-flick tests, vs compound 4) of the same compound?
Its value is “up to 8 fold”.

What about the “Antinociceptive potency higher than oxymorphone” value (mice [2]; hot-plate and tail-flick tests, vs oxymorphone) of the same compound?
The value was “about 2 fold”.

And the “Locomotor activity and sedative effects” value (mice [3])?
The value was “no major alterations in locomotor activity and no sedative effects”.

Which “Calcium mobilization assay DOP EC50” value (human DOP receptor [4]) does the source give for `Oc1ccc2c3c1O[C@H]1[C@@H](O)C=C[C@@]4(O)[C@@H](C2)N(CCc2ccccc2)CC[C@]314` [Compound 4, N-Phenethyl-14-hydroxynormorphine] here?
The value was “inactive ^d”.

And the Ki (MOP receptor)?
Its Ki is 4.6 ± 0.01 nM.

What about the “MOP receptor affinity lower than 14-unsubstituted counterpart 1” value (MOP receptor; vs compound 1) of the same compound?
Its value is “about 5 fold”.

And the “MOP receptor binding affinity increase over 14-hydroxymorphine (3)” value (MOP receptor; vs compound 3)?
Its value is “about 4 fold”.

And the Ki (DOP receptor)?
Its Ki is 163 ± 17 nM.

And the “Calcium mobilization assay KOP EC50” value (human KOP receptor [5])?
Its value is “inactive ^d”.

And the “Calcium mobilization assay KOP Emax” value (human KOP receptor [5])?
The value was “inactive ^d”.

And the ED50 (mice [1])?
Its ED50 is 1.14 mg/kg.

And the Ki (KOP receptor)?
The Ki was 513 ± 66 nM.

What about the “Locomotor activity and sedative effects” value (mice [3]) of the same compound?
Its value is “no major alterations in locomotor activity and no sedative effects”.

With `Oc1ccc2c3c1O[C@H]1[C@@H](O)C=C[C@H]4[C@@H](C2)N(CCc2ccccc2)CC[C@@]341` [Compound 1, N-phenethylnormorphine] as the compound, how does the “Calcium mobilization MOP more active than 14-hydroxy analogue 4” value (human MOP receptor [6]) read?
Its value is “about 3 fold”.

And the “Calcium mobilization MOP more potent than morphine” value (human MOP receptor [6])?
Its value is “about 3 fold”.

And the EC50 (human MOP receptor [6])?
The EC50 was 48.8 ± 14 nM.

And the Emax (human MOP receptor [6]; read-out: Calcium mobilization assay MOP Emax)?
The Emax was 70 ± 4%.

And the “Calcium mobilization assay DOP EC50” value (human DOP receptor [4])?
The value was “crc incomplete ^e”.

What about the Ki (MOP receptor) of the same compound?
The Ki was 0.93 ± 0.14 nM.

And the “Selectivity ratio DOP/MOP” value (MOP receptor)?
The value was 40.

And the “Selectivity ratio KOP/MOP” value (MOP receptor)?
Its value is 115.

And the “MOP receptor affinity greater than morphine” value (MOP receptor; vs morphine)?
Its value is 7 fold.

And the Ki (DOP receptor)?
Its Ki is 37 ± 5.5 nM.

What about the EC50 (human KOP receptor [7]) of the same compound?
The EC50 was 1050 nM.

What about the Emax (human KOP receptor [7]; read-out: [35S]GTPγS functional assay KOP Emax) of the same compound?
The Emax was 19 ± 2%.

And the “Calcium mobilization assay KOP EC50” value (human KOP receptor [5])?
The value was “inactive ^d”.

And the “Calcium mobilization assay KOP Emax” value (human KOP receptor [5])?
The value was “inactive ^d”.

What about the EC50 (human MOP receptor [8]) of the same compound?
The EC50 was 10.3 ± 0.9 nM.

What about the “MOP agonist potency in [35S]GTPγS more potent than DAMGO” value (human MOP receptor [8]) of the same compound?
The value was 2 fold.

And the “MOP agonist potency in [35S]GTPγS more potent than morphine” value (human MOP receptor [8])?
The value was “about 3 fold”.

What about the Emax (human MOP receptor [8]; read-out: [35S]GTPγS functional assay MOP Emax) of the same compound?
The Emax was 113 ± 8%.

What about the ED50 (mice [1]) of the same compound?
The ED50 was 0.11 mg/kg.

What about the “Tail-flick test, more effective than morphine” value (mice [1]; vs morphine) of the same compound?
Its value is 28 fold.

And the Ki (KOP receptor)?
Its Ki is 107 ± 18 nM.

And the melting point?
The melting point was 255 to 257 °C.

And the EC50 (human DOP receptor [9])?
The EC50 was 712 ± 86 nM.

And the Emax (human DOP receptor [9]; read-out: [35S]GTPγS functional assay DOP Emax)?
The Emax was 138 ± 17%.

What about the ED50 (mice [2]) of the same compound?
Its ED50 is 0.11 mg/kg.

What about the “Hot-plate test, more effective than morphine” value (mice [2]; vs morphine) of the same compound?
Its value is 22 fold.

And the “Locomotor activity and sedative effects” value (mice [3])?
The value was “no major alterations in locomotor activity and no sedative effects”.

With `CN1CC[C@]23c4c5ccc(O)c4O[C@H]2C(=O)CC[C@@]3(O)[C@H]1C5` [Oxymorphone, reference compound] as the compound, how does the ED50 (mice [1]) read?
Its ED50 is 0.35 mg/kg.

And the ED50 (mice [2])?
Its ED50 is 0.38 mg/kg.

For N-cyclohexylethylnormorphine, which “Analgesic potency relative to morphine” value (rodents) is on record?
The value was “one-third”.

With `O=C1CC[C@@]2(O)[C@H]3Cc4ccc(O)c5c4[C@@]2(CCN3CCc2ccccc2)[C@H]1O5` (as salt: HCl) [Compound 6, N-phenethylnoroxymorphone] as the compound, how does the melting point read?
The melting point was 85 to 90 °C.
